Consider three compounds from US7053188B2, “Monoclonal antibodies specific for neoplasia-specific NADH:disulfide reductase” (Purdue Research Foundation, priority 2002, dated 2006).

Assay [1] relates to NADH oxidase of HeLa plasma membranes. As to conditions: background statement; cited from earlier work.
Assay [2] has as its system tTIP. Put plainly: Direct assay of tTIP activity of HeLa plasma membranes with DTNA substrate. Type of assay: biochemical, human. Particulars: no antibody.
Assay [3] has as its system tTIP. Put plainly: tTIP activity of sera of cancer patients, dithio-dipyridyl substrate. Type of assay: biochemical, human. Particulars: Breast CA sera, without MAB 12.1. From the text: An alternative assay procedure is the use of a dithio-dipyridyl substrate as described in Morré et al. (1999) Mol. Cell. Biochem. 207:7-13.
For assay [4], the system named is tNOX. Put plainly: Immunoprecipitation of tNOX with MAB 12.1, supernatant activity assayed. As to conditions: Preimmune. Type of assay: biochemical, human. As for the experimental part:
Spectrophotometric tNOX Assay. NADH oxidase activity was determined as the disappearance of NADH measured at 340 nm with 430 nm as reference using an SLM Aminco (Lake Forest, Calif.) DW-2000 spectrophotometer in the dual wavelength mode of operation or a Hitachi (Tokyo, Japan) U3210 spectrophotometer at 340 nm with continuous recording over 5 or 10 min intervals once steady-state rates were obtained. The reaction mixture contained 50 mM Tris-Mes buffer (pH 7.0), 2 mM KCN to inhibit any potential mitochondrial oxidase activity, and 150 μM NADH in a total volume of 2.5 ml. Assay was at 37° C. with constant stirring. With purified fractions, 1 μM reduced glutathione was added to reduce the protein in the presence of substrate and human serum albumin, 0.1 mg/ml, as a protein source of thiols. After 10 min, 0.03% hydrogenperoxide was added (or oxidized glutathione) to reoxidize the protein under renaturing conditions and in the presence of substrate to start the reaction. A millimolar extinction coefficient of 6.22 was used to determine NADH disappearance. To determine capsaicin inhibition, capsaicin in DMSO was added to a final concentration of 1 μM (0.1% DMSO) and the rate of NADH oxidation determined over 10 min. Capsaicin at a final concentration of 100 μM (0.2% DMSO) was then added and the assay was continued for an additional 10 min. Immunoprecipitation. […]

The test system of assay [5] is tNOX. Put plainly: NADH oxidase (NOX) activity of pooled sera of cancer patients. Type of assay: biochemical, human. As to conditions: no MAB. As for the experimental part:
(§1) Pooled sera. Pooled sera were collected from the patient population of the Michiana Hematology-Oncology Clinic, South Bend, Ind. and from the patient population of St. Elizabeth Hospital of Lafayette, Ind. Only cancer patients with active disease (Stage III or Stage IV) were identified at the time of collections. Sera were frozen after collection and stored frozen at −20° C. Prior to assay, samples were thawed and maintained at 4° C. between thawing and assay.
Spectrophotometric tNOX Assay. NADH oxidase activity was determined as the disappearance of NADH measured at 340 nm with 430 nm as reference using an SLM Aminco (Lake Forest, Calif.) DW-2000 spectrophotometer in the dual wavelength mode of operation or a Hitachi (Tokyo, Japan) U3210 spectrophotometer at 340 nm with continuous recording over 5 or 10 min intervals once steady-state rates were obtained. […] To determine capsaicin inhibition, capsaicin in DMSO was added to a final concentration of 1 μM (0.1% DMSO) and the rate of NADH oxidation determined over 10 min. […]
(§2) NADH oxidase activity can also be measured using an Hitachi (Tokyo, Japan) U3210 spectrophotometer over 5 min intervals at 37° C. The activity was determined as the disappearance of NADH measured at 340 nm. […]

Assay [6] relates to NADH oxidase of normal sera. Put plainly: NADH oxidase (NOX) activity of pooled sera of normal volunteers. Type of assay: biochemical, human. As for the experimental part:
as §1
(§3) Spectrophotometric tNOX Assay. NADH oxidase activity was determined as the disappearance of NADH measured at 340 nm with 430 nm as reference using an SLM Aminco (Lake Forest, Calif.) DW-2000 spectrophotometer in the dual wavelength mode of operation or a Hitachi (Tokyo, Japan) U3210 spectrophotometer at 340 nm with continuous recording over 5 or 10 min intervals once steady-state rates were obtained. The reaction mixture contained 50 mM Tris-Mes buffer (pH 7.0), 2 mM KCN to inhibit any potential mitochondrial oxidase activity, and 150 μM NADH in a total volume of 2.5 ml. Assay was at 37° C. with constant stirring. With purified fractions, 1 μM reduced glutathione was added to reduce the protein in the presence of substrate and human serum albumin, 0.1 mg/ml, as a protein source of thiols. After 10 min, 0.03% hydrogenperoxide was added (or oxidized glutathione) to reoxidize the protein under renaturing conditions and in the presence of substrate to start the reaction. A millimolar extinction coefficient of 6.22 was used to determine NADH disappearance. To determine capsaicin inhibition, capsaicin in DMSO was added to a final concentration of 1 μM (0.1% DMSO) and the rate of NADH oxidation determined over 10 min. Capsaicin at a final concentration of 100 μM (0.2% DMSO) was then added and the assay was continued for an additional 10 min.
as §2

Assay [7] deals with NADH oxidase of HeLa plasma membranes. Put plainly: NADH oxidase activity of HeLa S plasma membranes. Particulars: 37° C. The assay is classed as biochemical, human. As for the experimental part: as §3
Where [8] appears, read: cells incubated in 0.1 M sodium acetate, pH 5, 2 h.
The mark [9] stands for this setting: cells incubated in PBS, pH 7, 2 h.

Turning to `Cc1ccc(S(=O)(=O)NC(=O)Nc2ccc(Cl)cc2)cc1` [LY181984], the “ability of HeLa plasma membrane vesicles to oxidize NADH (in words)” value in assay [1] was “partially inhibited”.

`O=C(O)c1ccc(SSc2ccc(C(=O)O)cn2)nc1` [DTNA, 6,6′-dithionicotinic acid]: the Michaelis constant (Km) (in general, the concentration of substrate that gives half-maximal velocity) in the assay on tTIP [2] was found to be 1.5 mM. In addition, in the assay on tTIP [2] (estimated), the VMAX was 1.5 nmoles/min/mg protein.

`COc1cc(CNC(=O)CCCC/C=C/C(C)C)ccc1O` [capsaicin, 8-methyl-N-vanillyl-6-noneamide] showed a Capsaicin inhibition in the assay with tTIP [3] of −0.6. Also, the “Supernatant activity, 1 μM capsaicin” value in the assay on tNOX [4] (1 μM capsaicin) is 0.6 ± 0.4 nmoles/min/100 μl serum. In the assay on tNOX [4] (100 μM capsaicin), the “Supernatant activity, 100 μM capsaicin” value is listed as 0.5 nmoles/min/100 μl serum. The “NOX activity of sera, +1 μM Cap” value in the assay on tNOX [5] (1 μM capsaicin) was 1.0 ± 0.13; in assay [6] (normal sera, no MAB, 1 μM capsaicin), 0.7 ± 0.14. Further, the “NOX activity of sera, + μM Cap” value in the assay on tNOX [5] (capsaicin (concentration not given)) amounted to 1.0 ± 0.17; in assay [6] (normal sera, no MAB, capsaicin (concentration not given)), 0.7 ± 0.16. Besides, in assay [6] (capsaicin 1 to 100 μM), the “NADH oxidation by pooled sera from normal patients (in words)” value is “not inhibited”. Also, the “ability of HeLa plasma membrane vesicles to oxidize NADH (in words)” value in assay [1] was “partially inhibited”. Also, the entries for the “NADH oxidase activity, 1 μM capsaicin” value in assay [7] (setting [8]) and in assay [7] (setting [9]) were 0.2 ± 0.01 nmoles/min/mg plasma membrane protein and 0.2 ± 0.02 nmoles/min/mg plasma membrane protein, respectively. The “NADH oxidase activity, 100 μM capsaicin” value in assay [7] (setting [8]) was 0.15 ± 0.02 nmoles/min/mg plasma membrane protein; in assay [7] (setting [9]) it was 0.2 ± 0.02 nmoles/min/mg plasma membrane protein.
